Test results published in US5652366A, “DI (1R)-(-)camphosulfonic acid) salt, preparation thereof and use thereof” (Rhone-Poulenc Rorer Pharmaceuticals Inc., priority 1995, dated 1997).
Read-outs that look alike come from different tables or passages of the source.

Experiments:
[1] = system: normotensive anesthetized rat; assay: In vivo mean arterial pressure and heart rate in normotensive anesthetized rat; conditions: iv
Method: Normotensive rats were anesthetized with sodium pentobarbital (50 mg/kg, j.p.) and placed on a heated surgical table. Cannulas were inserted into the femoral artery and […] to allow the measurement of arterial pressure and to facilitate the intravenous administration of test compounds. The animals was allowed to equilibrate for 10 minutes after surgery. Mean arterial pressure was continuously measured and recorded and heart rate was monitored using the arterial pressure pulse to trigger a cardiotachometer. After baseline parameters were established and recorded, increasing doses (1, 3, 10, 30, 100, 300 and 1000 μg/kg) of the compound of the invention to be tested were administered intravenously. Maximal changes in the cardiovascular parameters were observed after each dose of the adenosine agonist. Only one compound was administered per rat.

swine coronary arteries = assay: In vitro vasorelaxation in isolated swine coronary arteries (PGF2α-contracted rings); format: cell-based; conditions: Sus scrofa; for EC50: Table II; for IC50: read-out: Vasorelaxation (IC50)
Method: Swine coronary arteries were obtained from a local slaughter house, dissected carefully and cleaned of fat, blood and adhering tissue. Rings approximately 2-3 mm wide were cut and transferred to water-jacketed tissue baths (10 ml) filled with warm (37° C.), oxygenated (O2 /CO2 :95%/5%) Krebs-Henseleit buffer and mounted on L-shaped hooks between stainless steel rods and a force transducer. […] Rings were equilibrated for 90 minutes with frequent buffer changes at a resting tension of 5 g In order to assure optimal tension development, arterial rings were primed twice with 36 mM KCl and once with 10 μm. PGF2α, before being exposed to 3 μM PGF2α. […] Tension achieved with 3 μM PGF2α was considered .equivalent to 100%; all other values were expressed as a percentage of that maximum.

rat adipocytes = assay: In vitro lipolysis assay in rat adipocytes (glycerol production); format: cell-based; conditions: for EC50 / inhibition at 0.1 µM / inhibition at 1 µM: Rattus norvegicus, Adipocyte; for EC50: read-out: EC50 (50% inhibition of glycerol production); for inhibition at 0.1 µM / inhibition at 1 µM: read-out: % Inhibition of glycerol production
Method: Adipose tissue is removed from anesthetized rats and rinsed twice in incubation medium (2.09 g sodium bicarbonate and 0.04 g EDTA, disodium salt, in 1 L Krebs buffer). Each rat (300-350 g) yields approximately 4 ml of adipose tissue. The adipose tissue (35 ml) is cut into small pieces with scissors and washed with incubation medium (50 ml). The mixture is poured into the barrel of a 50 ml syringe to which is attached a short piece of clamped tubing instead of a needle. The aqueous phase is allowed to drain. A second wash with incubation medium is passed through the syringe. The tissue is added to 50 ml of collagenase solution (collagenase(90 mg), bovine serum albumin (BSA) (500 mg), and 0.1 M calcium chloride solution (1 ml), in incubation medium (50 ml)) in a 1 L bottle. The mixture is shaken in an environmental at 37° C. for about 60 minutes under an atmosphere of 95% oxygen/5% carbon dioxide to effect digestion of the tissue. The dispersed cells are poured through 2 layers of cheese cloth into a 100 ml plastic beaker. The undigested clumps in the cloth are rinsed once with incubation medium (20 ml). The cells in the beaker are centrifuged in 2 plastic tubes for 30 seconds at room temperature at 300 rpm. The aqueous phase is aspirated from beneath the loosely packed layer of floating fat cells and discarded. The adipocytes are gently poured into a 250 ml plastic beaker containing 100 ml of rinse solution (1 g BSA per 100 ml incubation medium). After gentle stirring the centrifugation step is repeated. Another wash with rinse solution follows. The cells are pooled and their volume is estimated with a graduated cylinder. The adipocytes are diluted in twice their volume of assay buffer (incubation medium (120 ml), BSA (1.2 g), pyruvic acid (13 mg)).
The assay is performed in 20 ml plastic scintillation vials and the total assay volume is 4.2 ml. Assay buffer (2.5 ml), diluted adipocytes (1.5 ml), and a solution of the compound to be tested (12.3 μL) adenosine agonist (12.3 μl; varying concentration) is incubated in the environmental shaker for 15 minutes, then the reaction is started with norepinephrine solution (41.2 μL) (10 nM, in a carrier solution containing water (100 ml), BSA (4 mg), and 0.1 M EDTA (20 I. LL))and adenosine deaminase (1 μg/ml, 41.2 μl). After sixty minutes in the shaker the reaction is terminated by putting the vials on ice. […] The hard lipid layer is removed by aspiration and the aqueous layer is assayed for glycerol (400 μl of sample). The positive control is done in the absence of any adenosine agonist, substituting water in place of the solution to be tested.

[2] = dose lowering heart rate by 25%, read-out: Blood Press/Heart Rate Anesthetized Rat HR/ED25
[3] = dose lowering mean arterial pressure by 25%, read-out: Blood Press/Heart Rate Anesthetized Rat MAP/ED25
[4] = 50% reduction in tension, 3 μM PGF2α, read-out: Vasorelaxation in Swine Coronary Artery/IC50
[5] = read-out: Vasorelaxation in Swine Coronary Artery/IC50 (μM), 50% reduction in tension, 3 μM PGF2α
[6] = 0.1 μM, versus positive control

`OC[C@H]1O[C@@H](n2cnc3c(N[C@@H]4CC=CC[C@H]4c4ccsc4)ncnc32)[C@H](O)[C@@H]1O` (relative stereo) [Example 8, N^6-[trans-2-(thiophen-3-yl)-cyclohex-4-en-1-yl]adenosine] gave an ED25 [1, 2] of 0.023 mg/kg and an ED25 [1, 3] of 0.01 mg/kg.

Work on `CCNC(=O)[C@H]1C[C@@H](n2cnc3c(NCCc4nccs4)ncnc32)[C@H](O)[C@@H]1O` (relative stereo) [Example 25, (±)-N^6-[2-(2"-thiazolyl)ethyl]-carbocyclic adenosine-5'-N-ethyl carboxamide] yielded an EC50 (swine coronary arteries; [4]) of 0.64 µM.

With `CCNC(=O)[C@H]1C[C@@H](n2cnc3c(NCCc4cccs4)ccnc32)[C@H](O)[C@@H]1O` (relative stereo) [Example 30, (±)-N6-[1-(thiopheny-2-yl)ethan-2-yl]-N'-1-deazaaristeromycin-5'-N-ethyl carboxamide] the ED25 [1, 2] was over 0.01 mg/kg, the ED25 [1, 3] was 0.006 mg/kg and the EC50 (swine coronary arteries; [5]) was 12.1 µM.

`CO[C@@H]1[C@H](O)[C@@H](CO)O[C@H]1n1cnc2c(N[C@@H]3CC=CC[C@H]3c3cccs3)ncnc21` (relative stereo) [Example 49, N^6-[trans-5-(2-thienyl)cyclohex-1-en-4-yl]-2'-O-methyladenosine] showed an EC50 (rat adipocytes) of 18.6 nM, an inhibition at 0.1 µM (rat adipocytes; [6]) of 85% and an EC50 (swine coronary arteries; [5]) of 9.81 µM.

With `CCNC(=O)[C@H]1O[C@@H](n2cnc3c(NC4CC=CCC4c4cccs4)ncnc32)[C@H](O)[C@@H]1O` (single isomer, unassigned) [Example 5, N6-[trans-2-(thiophen-2-yl)cyclohex-4-en-l-yl]adenosine-5'-N-ethylcarboxamide] the EC50 (swine coronary arteries; [5]) was 0.068 µM.

`CCNC(=O)[C@H]1O[C@@H](n2cnc3c(N)nc(NCCc4ccc(CCC(=O)O)cc4)nc32)[C@H](O)[C@@H]1O` [CGS21680, reference compound] was tested, and the inhibition at 1 µM (rat adipocytes) was 0%, the antilipolytic activity (rat adipocytes; in words) was “do not exhibit antilipolytic activity” and the IC50 (swine coronary arteries) was 80 nM.

Work on `OC[C@H]1O[C@@H](n2cnc3c(NC4CCCC4)ncnc32)[C@H](O)[C@@H]1O` [CPA, N-cyclopentyladenosine, reference compound] yielded an inhibition at 0.1 µM (rat adipocytes) of 97%, an inhibition at 1 µM (rat adipocytes) of 100% and an EC50 (rat adipocytes) of 0.31 nM. The IC50 (swine coronary arteries) was 3180 nM.

Work on `CCNC(=O)[C@H]1C[C@@H](n2cnc3c(N[C@H](C)Cc4ccc(Cl)s4)[n+]([O-])cnc32)[C@H](O)[C@@H]1O` [Example 35, (2S)-2α,3α-dihydroxy-4β-[N6-[2-(5-chloro-2-thienyl)-(1R)-1-methylethyl]amino-9-adenyl]cyclopentane-1β-N-ethylcarboxamide-N^1-oxide] yielded an EC50 (swine coronary arteries; [4]) of 3.3 µM.

For `CCNC(=O)[C@H]1C[C@@H](n2cnc3c(NC(CC)Cc4sccc4Cl)ccnc32)[C@H](O)[C@@H]1O` (stereo partly drawn) [Example 37, [1S-[1α,2β,3β,4α]]-4-[7-[[2-(3-chloro-2-thienyl)-1-ethylethyl]amino]-3 H-imidazo[4,5-b]pyridin-3-yl]-N-ethyl-2,3-dihydroxycyclopentane-carboxamide], the EC50 (swine coronary arteries; [4]) was 0.45 µM.

`CCNC(=O)[C@H]1C[C@@H](n2cnc3c(NC(Cc4cccs4)C(C)C)ccnc32)[C@H](O)[C@@H]1O` (stereo partly drawn) [Example 38, [1S-[1α,2β,3β,4α]]-4-[7-[[2-(2-thienyl)-1-isopropylethyl]amino]-3 H-imidazo[4,5-b]pyridin-3-yl]-N-ethyl-2,3-dihydroxycyclopentanecarboxamide] was tested, and the EC50 (swine coronary arteries; [4]) was 0.47 µM.

Compound `CCNC(=O)[C@H]1C[C@@H](n2cnc3c(N[C@H](C)Cc4cccs4)ccnc32)[C@H](O)[C@@H]1O` [Example 40, [1S-[1α,2β,3β,4α(S*)]]-4-[7-[[2-(2-thienyl)-1-methylethyl]amino]-3 H-imidazo[4,5-b]pyridin-3-yl]-N-ethyl-2,3-dihydroxycyclopentane-carboxamide] has an EC50 (swine coronary arteries; [4]) of 0.283 µM.

In the case of `CCNC(=O)[C@H]1C[C@@H](n2cnc3c(N[C@H](CC)Cc4ccc(Cl)s4)ccnc32)[C@H](O)[C@@H]1O` [Example 41, [1S-[1α,2β,3β,4α]]-4-[7-[[2-(5-chloro-2-thienyl)-1-ethylethyl]amino]-3 H-imidazo[4,5-b]pyridin-3-yl]-N-ethyl-2,3-dihydroxycyclopentane-carboxamide], the inhibition at 0.1 µM (rat adipocytes; [6]) is reported as 88%.

Compound `CCNC(=O)[C@H]1C[C@@H](n2cnc3c(N[C@H](C)Cc4ccc(Cl)s4)ncnc32)[C@H](OC(=O)OC)[C@@H]1OC(=O)OC` [Example 42, (2S)-2α,3α-bis-methoxycarbonyloxy-4β-[N6-[2-(5-chloro-2-thienyl)-(1R)-1-methylethyl]amino-9-adenyl]cyclopentane-1β-N-ethylcarboxamide] has an EC50 (swine coronary arteries; [5]) of 2.44 µM.

`CCNC(=O)[C@H]1C[C@@H](n2cnc3c(N[C@H](C)Cc4ccc(Cl)s4)ncnc32)[C@@H]2OC(OCC)O[C@@H]21` (stereo partly drawn) [Example 43, (2S)-2α,3α-dihydroxy-4β-[N6-[2-(5-chloro-2-thienyl)-(1R)-1-methylethyl]amino-9-adenyl]cyclopentane-1β-N-ethylcarboxamide ethoxymethylene acetal] showed an EC50 (swine coronary arteries; [5]) of 7.83 µM.

Compound `CCNC(=O)[C@H]1C[C@@H](n2cnc3c(N[C@H](C)Cc4ccc(Cl)s4)ncnc32)[C@H](OC(=O)NC)[C@@H]1OC(=O)NC` [Example 45, (2S)-2α,3α-bis-methylcarbamoyloxy-4β-[N6-[2-(5-chloro-2-thienyl)-(1R)-1-methylethyl]amino-9-adenyl]cyclopentane-1β-N-ethylcarboxamide] has an EC50 (swine coronary arteries; [4]) of 4.1 µM.

`CCNC(=O)[C@H]1C[C@@H](n2cnc3c(N[C@H](C)Cc4ccc(Cl)s4)ncnc32)[C@@H]2OC(=S)O[C@@H]21` [Example 46, (2S)-2α,3α-dihydroxy-4β-[N6-[2-(5-chloro-2-thienyl)-(1R)-1-methylethyl]amino-9-adenyl]cyclopentane-1β-N-ethylcarboxamide-2,3-thiocarbonate] showed an EC50 (rat adipocytes; unit nM in cell) of 4 nM and an EC50 (swine coronary arteries; [5]) of 3.52 µM.

For `CO[C@@H]1[C@H](O)[C@@H](CO)O[C@H]1n1cnc2c(N[C@H](C)Cc3sccc3Cl)ncnc21` [Example 47, N^6-[2-(3-chloro-2-thienyl)-(1R)-1-methylethyl]-2'-O-methyladenosine], the EC50 (rat adipocytes; unit nM in cell) was 0.63 nM, the inhibition at 0.1 µM (rat adipocytes; [6]) was 94% and the EC50 (swine coronary arteries; [4]) was 5.7 µM.

`CO[C@@H]1[C@H](O)[C@@H](CO)O[C@H]1n1cnc2c(N[C@H](C)Cc3ccc(Cl)s3)ncnc21` [Example 48, N^6-[2-(5-chloro-2-thienyl)-(1R)-1-methylethyl]-2'-O-methyladenosine] showed an EC50 (rat adipocytes) of 1.86 nM and an inhibition at 0.1 µM (rat adipocytes; [6]) of 88%.

Work on `CCNC(=O)[C@H]1O[C@@H](n2cnc3c(N)ncnc32)[C@H](O)[C@@H]1O` [NECA, N-ethylcarboxamidoadenosine, reference compound] yielded an EC50 (rat adipocytes) of 2.5 nM.

For `C[C@H](Cc1ccccc1)Nc1ncnc2c1ncn2[C@@H]1O[C@H](CO)[C@@H](O)[C@H]1O` [R-PIA, R-phenylisopropyladenosine, reference compound], the EC50 (rat adipocytes) was 1 nM and the IC50 (swine coronary arteries) was 760 nM.
